Legend:
[1] = target: T1, IRAK4 (Homo sapiens, UniProt Q9NWZ3); experiment: IRAK4 Degradation Assay, HiBiT Method; format: cell-based; conditions: 293T cells expressing HiBiT-tagged IRAK4, 6 hours
T1 construct: 293Tcells expressing HiBiT-tagged IRAK4 were then added into 384-well plates
T1 sequence (Q9NWZ3 1-460): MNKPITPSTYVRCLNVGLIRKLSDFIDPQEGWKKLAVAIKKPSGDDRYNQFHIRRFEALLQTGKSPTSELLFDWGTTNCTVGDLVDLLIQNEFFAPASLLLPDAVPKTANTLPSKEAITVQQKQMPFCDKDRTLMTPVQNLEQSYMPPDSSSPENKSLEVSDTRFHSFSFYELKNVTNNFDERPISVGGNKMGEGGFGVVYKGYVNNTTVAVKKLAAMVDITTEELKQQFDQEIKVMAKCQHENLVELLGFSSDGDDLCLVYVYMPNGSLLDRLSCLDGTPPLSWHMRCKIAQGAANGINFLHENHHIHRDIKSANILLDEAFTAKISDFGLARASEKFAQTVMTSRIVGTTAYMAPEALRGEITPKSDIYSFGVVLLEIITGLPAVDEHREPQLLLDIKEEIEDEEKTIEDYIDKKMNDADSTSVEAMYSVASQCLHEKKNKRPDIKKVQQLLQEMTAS
Method in brief: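 293T cells with HiBiT knocked in at the C-terminus of endogenous IRAK4, 10,000 per well, treated 6 h at 37 °C with an 11-point half-log series ([…]), in duplicate. Remaining IRAK4 read by Nano-Glo HiBiT lytic luminescence against DMSO-only and media-only controls.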

[2] = target: T2, IKZF1 (Homo sapiens, UniProt Q13422); experiment: IKZF1 Degradation Assay, HiBiT Method; format: cell-based; conditions: for DC50: NCIH929 cells expressing HiBiT-tagged IKZF1, 6 hours, top concentration 10 μM
T2 construct: endogenously expressing IKZF1 with HiBiT fusion tag via CRISPR
T2 sequence (Q96SW2 whole entry partner, the tested form may be a part): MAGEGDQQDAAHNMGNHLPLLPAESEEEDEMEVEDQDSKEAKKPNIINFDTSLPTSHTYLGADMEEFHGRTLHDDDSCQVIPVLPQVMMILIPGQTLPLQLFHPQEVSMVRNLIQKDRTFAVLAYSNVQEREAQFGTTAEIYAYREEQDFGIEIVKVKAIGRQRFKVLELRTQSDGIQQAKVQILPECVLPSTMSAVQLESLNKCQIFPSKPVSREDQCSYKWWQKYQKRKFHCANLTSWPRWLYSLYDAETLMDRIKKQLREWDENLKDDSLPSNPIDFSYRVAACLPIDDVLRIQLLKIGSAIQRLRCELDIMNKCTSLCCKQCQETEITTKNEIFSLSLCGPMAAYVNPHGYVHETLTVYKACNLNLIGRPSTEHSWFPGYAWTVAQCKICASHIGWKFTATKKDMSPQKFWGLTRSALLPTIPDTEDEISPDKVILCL
T2 sequence (Q16531 whole entry partner, the tested form may be a part): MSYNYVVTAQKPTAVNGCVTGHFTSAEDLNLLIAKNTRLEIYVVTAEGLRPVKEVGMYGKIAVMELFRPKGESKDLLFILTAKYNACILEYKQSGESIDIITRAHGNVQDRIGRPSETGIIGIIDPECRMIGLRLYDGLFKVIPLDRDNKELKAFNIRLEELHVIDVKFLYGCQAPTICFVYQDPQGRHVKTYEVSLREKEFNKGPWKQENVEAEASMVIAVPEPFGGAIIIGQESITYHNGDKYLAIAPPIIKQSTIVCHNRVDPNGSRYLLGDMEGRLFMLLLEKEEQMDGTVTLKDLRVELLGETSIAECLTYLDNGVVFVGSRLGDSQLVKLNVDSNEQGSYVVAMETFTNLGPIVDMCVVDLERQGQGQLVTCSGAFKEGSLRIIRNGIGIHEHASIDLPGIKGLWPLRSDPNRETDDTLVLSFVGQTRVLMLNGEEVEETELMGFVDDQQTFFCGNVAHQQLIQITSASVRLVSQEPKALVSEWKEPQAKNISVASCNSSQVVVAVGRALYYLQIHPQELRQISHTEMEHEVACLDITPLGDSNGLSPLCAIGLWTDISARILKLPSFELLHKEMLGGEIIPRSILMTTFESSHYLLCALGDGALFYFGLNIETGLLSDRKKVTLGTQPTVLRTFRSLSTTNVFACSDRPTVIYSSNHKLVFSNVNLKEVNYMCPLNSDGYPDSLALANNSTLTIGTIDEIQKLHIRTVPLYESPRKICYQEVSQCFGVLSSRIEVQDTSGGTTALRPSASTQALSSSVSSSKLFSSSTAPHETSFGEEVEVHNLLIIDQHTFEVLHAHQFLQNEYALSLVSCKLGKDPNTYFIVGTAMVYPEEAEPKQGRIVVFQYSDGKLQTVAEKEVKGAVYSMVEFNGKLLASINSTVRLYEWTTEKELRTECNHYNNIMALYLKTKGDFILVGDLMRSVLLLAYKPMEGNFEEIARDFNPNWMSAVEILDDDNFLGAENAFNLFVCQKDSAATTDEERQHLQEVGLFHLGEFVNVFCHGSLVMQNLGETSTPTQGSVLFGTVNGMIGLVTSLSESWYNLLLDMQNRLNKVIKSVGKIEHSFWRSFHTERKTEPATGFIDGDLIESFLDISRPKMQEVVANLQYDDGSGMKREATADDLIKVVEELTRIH
T2 sequence (Q13422 whole entry, the tested form may be a part): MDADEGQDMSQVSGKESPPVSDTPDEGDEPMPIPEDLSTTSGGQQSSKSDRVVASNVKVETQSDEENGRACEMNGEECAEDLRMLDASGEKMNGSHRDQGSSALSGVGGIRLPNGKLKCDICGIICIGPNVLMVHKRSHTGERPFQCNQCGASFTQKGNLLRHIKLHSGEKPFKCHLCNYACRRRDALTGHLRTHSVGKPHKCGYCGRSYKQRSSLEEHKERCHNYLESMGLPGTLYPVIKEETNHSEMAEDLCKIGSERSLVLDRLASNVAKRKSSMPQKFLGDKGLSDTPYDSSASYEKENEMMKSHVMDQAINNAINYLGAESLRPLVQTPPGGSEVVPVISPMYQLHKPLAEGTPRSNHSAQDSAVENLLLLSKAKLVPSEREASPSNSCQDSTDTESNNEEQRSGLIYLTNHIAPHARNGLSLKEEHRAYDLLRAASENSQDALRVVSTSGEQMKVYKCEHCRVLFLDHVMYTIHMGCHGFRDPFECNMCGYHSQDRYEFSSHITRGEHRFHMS
Protocol: Assay 2. IKZF1 Degradation Assay, HiBiT Method
Selected compounds of this disclosure were tested in an IKZF1 degradation assay using the HiBiT Method.
RPMI no-phenol red medium and fetal bovine serum (FBS) were purchased from Gibco (Grand Island, NY, USA). Nano-Glo® HiBiT Lytic Assay System was purchased from Promega (Madison, WI, USA). […] Cell culture flasks and 384-well microplates were acquired from VWR (Radnor, PA, USA).
IKZF1 degradation was determined based on quantification of luminescent signal using Nano-Glo® HiBiT Lytic Assay kit. […] NCIH929 cells expressing HiBiT-tagged IKZF1 were added into 384-well plates in RPMI medium containing 10% FBS and 0.05 mM 2-mercaptoethanol at a cell density of 15000 cells per well. The plates were kept at 37° C. with 5% CO2 for 6 hours. Cells treated in the absence of the test compound were the negative control and wells containing media only were the positive control. After 6-hour incubation, Nano-Glo® HiBiT Lytic Assay reagents were added to the designated wells. Luminescence was acquired on EnVision® Multilabel Reader (PerkinElmer, Santa Clara, CA, USA).

SMILES | DC50 [1] [nM] | DC50 [2] [nM] | degradation of IKZF1 ([2]; NCIH929.11 cells, 6 hours) [%]
CC(C)Oc1cc2nc([C@H]3CC[C@H](CN4CCC(c5ccc(C6CCC(=O)NC6=O)cc5F)CC4)CC3)cn2cc1C(=O)Nc1cccc(C(F)F)n1 (some centres unmarked) [Example 23, N-[6-(difluoromethyl)-2-pyridyl]-2-[4-[[4-[4-(2,6-dioxo-3-piperidyl)-2-fluoro-phenyl]-1-piperidyl]methyl]cyclohexyl]-7-isopropoxy-imidazo[1,2-a]pyridine-6-carboxamide] | 10 to 100 | > 10000 | 
CC(C)Oc1cc2nc(C3CCN(C(=O)CC4(O)CCN(c5ccc(NC6CCC(=O)NC6=O)cc5Cl)CC4)CC3)cn2cc1C(=O)Nc1cccc(C(F)F)n1 (centres unmarked) [Example 73, 2-[1-[2-[1-[2-chloro-4-[(2,6-dioxo-3-piperidyl)amino]phenyl]-4-hydroxy-4-piperidyl]acetyl]-4-piperidyl]-N-[6-(difluoromethyl)-2-pyridyl]-7-isopropoxy-imidazo[1,2-a]pyridine-6-carboxamide] | < 10 | > 10000 | 
Cc1cnc2c(NC(=O)c3cc4cn([C@H]5CC[C@H](CN6CCC(c7ccc(C8CCC(=O)NC8=O)cc7F)CC6)CC5)nc4cc3OC(C)C)cnn2c1 (some centres unmarked) [Example 114, 2-((1r,4r)-4-((4-(4-(2,6-dioxopiperidin-3-yl)-2-fluorophenyl)piperidin-1-yl)methyl)cyclohexyl)-6-isopropoxy-N-(6-methylpyrazolo[1,5-a]pyrimidin-3-yl)-2H-indazole-5-carboxamide] | 10 to 100 | > 10000 | 
CC(C)Oc1cc2nc(C3CCN(C(=O)CC4CCN(c5ccc(C6CCC(=O)NC6=O)cn5)CC4)CC3)cn2cc1C(=O)Nc1cnn2cccnc12 (centres unmarked) [Example 159, 2-(1-(2-(1-(5-(2,6-dioxopiperidin-3-yl)pyridin-2-yl)piperidin-4-yl)acetyl)piperidin-4-yl)-7-isopropoxy-N-(pyrazolo[1,5-a]pyrimidin-3-yl)imidazo[1,2-a]pyridine-6-carboxamide] | < 10 | > 10000 | 
CC(C)Oc1cc2nn([C@H]3CC[C@H](CN4CC5(CCN(c6ncc(C7CCC(=O)NC7=O)cc6F)CC5)C4)CC3)cc2cc1C(=O)Nc1cccn([C@H]2C[C@H]2F)c1=O (stereo partly drawn) [Example 121, 2-((1r,4S)-4-((7-(5-(2,6-dioxopiperidin-3-yl)-3-fluoropyridin-2-yl)-2,7-diazaspiro[3.5]nonan-2-yl)methyl)cyclohexyl)-N-(1-((1S,2R)-2-fluorocyclopropyl)-2-oxo-1,2-dihydropyridin-3-yl)-6-isopropoxy-2H-indazole-5-carboxamide] | < 10 | > 10000 | 
CC(C)Oc1cc2nn([C@H]3CC[C@H](CN4CCC(c5ccc(O[C@H]6CCC(=O)NC6=O)cc5)CC4)CC3)cc2cc1C(=O)Nc1cccn(C2CC2)c1=O (single isomer, unassigned) [Example 142] | < 10 | > 10000 | 
CC(C)Oc1cc2nn([C@H]3CC[C@H](CN4CCN(c5ccc(C6CCC(=O)NC6=O)cn5)CC(O)C4)CC3)cc2cc1C(=O)Nc1cccn([C@H]2C[C@H]2F)c1=O (stereo partly drawn) [Example 120, 2-((1r,4S)-4-((4-(5-(2,6-dioxopiperidin-3-yl)pyridin-2-yl)-6-hydroxy-1,4-diazepan-1-yl)methyl)cyclohexyl)-N-(1-((1S,2R)-2-fluorocyclopropyl)-2-oxo-1,2-dihydropyridin-3-yl)-6-isopropoxy-2H-indazole-5-carboxamide] | < 10 | > 10000 | 
CC(C)Oc1cc2nc(C3CCN(C(=O)CC4(O)CCN(c5ccc(NC6CCC(=O)NC6=O)cc5)CC4)CC3)cn2cc1C(=O)Nc1cccc(C(F)F)n1 (centres unmarked) [Example 71, N-[6-(difluoromethyl)-2-pyridyl]-2-[1-[2-[1-[4-[(2,6-dioxo-3-piperidyl)amino]phenyl]-4-hydroxy-4-piperidyl]acetyl]-4-piperidyl]-7-isopropoxy-imidazo[1,2-a]pyridine-6-carboxamide] | 10 to 100 | > 10000 | 
Cc1cnc2c(NC(=O)c3cn4cc([C@H]5CC[C@H](CN6CCC(c7ccc(OC8CCC(=O)NC8=O)cc7)CC6)CC5)nc4cc3OC(C)C)cnn2c1 (some centres unmarked) [Example 52, 2-[4-[[4-[4-[(2,6-dioxo-3-piperidyl)oxy]phenyl]-1-piperidyl]methyl]cyclohexyl]-7-isopropoxy-N-(6-methylpyrazolo[1,5-a]pyrimidin-3-yl)imidazo[1,2-a]pyridine-6-carboxamide] | < 10 | > 10000 | 
CC(C)Oc1cc2nc(C3CCN(C(=O)CN4CCC(c5ccc(C6CCC(=O)NC6=O)cc5)CC4)CC3)cn2cc1C(=O)Nc1cnn2cccnc12 (centres unmarked) [Example 87, 2-[1-[2-[4-[4-(2,6-dioxo-3-piperidyl)phenyl]-1-piperidyl]acetyl]-4-piperidyl]-7-isopropoxy-N-pyrazolo[1,5-a]pyrimidin-3-yl-imidazo[1,2-a]pyridine-6-carboxamide] | < 10 | > 10000 | 
Nc1cccc2c1C(=O)N(C1CCC(=O)NC1=O)C2=O (centres unmarked) [pomalidomide, reference compound] |  |  | 90
CC(C)Oc1nc2nc(C3CCN(C(=O)CC4CCN(c5ncc(C6CCC(=O)NC6=O)cc5F)CC4)CC3)cn2cc1C(=O)Nc1cccn([C@H]2C[C@H]2F)c1=O (stereo partly drawn) [Example 186, 2-(1-(2-(1-(5-(2,6-dioxopiperidin-3-yl)-3-fluoropyridin-2-yl)piperidin-4-yl)acetyl)piperidin-4-yl)-N-(1-((1S,2R)-2-fluorocyclopropyl)-2-oxo-1,2-dihydropyridin-3-yl)-7-isopropoxyimidazo[1,2-a]pyrimidine-6-carboxamide] | < 10 |  | 

The remaining lines, values ahead:

DC50 [1] [nM] | DC50 [2] [nM] | degradation of IKZF1 ([2]; NCIH929.11 cells, 6 hours) [%] | SMILES
< 10 | > 10000 |  | CC(C)Oc1cc2nn([C@H]3CC[C@H](CNC4CCN(c5ncc(C6CCC(=O)NC6=O)cc5F)CC4)CC3)cc2cc1C(=O)Nc1cccn(C2CC2)c1=O (some centres unmarked) [Example 125, N-(1-cyclopropyl-2-oxo-1,2-dihydropyridin-3-yl)-2-((1r,4r)-4-(((1-(5-(2,6-dioxopiperidin-3-yl)-3-fluoropyridin-2-yl)piperidin-4-yl)amino)methyl)cyclohexyl)-6-isopropoxy-2H-indazole-5-carboxamide]
< 10 | > 10000 |  | CC(C)Oc1cc2nc(C3CCN(C(=O)CC4(O)CCN(c5ccc(NC6CCC(=O)NC6=O)cc5F)CC4)CC3)cn2cc1C(=O)Nc1cccc(C(F)F)n1 (centres unmarked) [Example 69, N-[6-(difluoromethyl)-2-pyridyl]-2-[1-[2-[1-[4-[(2,6-dioxo-3-piperidyl)amino]-2-fluoro-phenyl]-4-hydroxy-4-piperidyl]acetyl]-4-piperidyl]-7-isopropoxy-imidazo[1,2-a]pyridine-6-carboxamide]
< 10 | > 10000 |  | CC(C)Oc1cc2nc([C@H]3CC[C@H](CN4CCC(c5ccc6c(c5)n(C)c(=O)n6C5CCC(=O)NC5=O)C(F)(F)C4)CC3)cn2cc1C(=O)Nc1cnn2cccnc12 (some centres unmarked) [Example 49, 2-[4-[[4-[1-(2,6-dioxo-3-piperidyl)-3-methyl-2-oxo-benzimidazol-5-yl]-3,3-difluoro-1-piperidyl]methyl]cyclohexyl]-7-isopropoxy-N-pyrazolo[1,5-a]pyrimidin-3-yl-imidazo[1,2-a]pyridine-6-carboxamide]
< 10 | > 10000 |  | CC(C)Oc1cc2nn([C@H]3CC[C@H](CN4CCC(c5ccc(OC6CCC(=O)NC6=O)cc5)CC4)CC3)cc2cc1C(=O)Nc1cccn(C2CC2)c1=O (some centres unmarked) [Example 113, N-(1-cyclopropyl-2-oxo-1,2-dihydropyridin-3-yl)-2-((1r,4r)-4-((4-(4-((2,6-dioxopiperidin-3-yl)oxy)phenyl)piperidin-1-yl)methyl)cyclohexyl)-6-isopropoxy-2H-indazole-5-carboxamide]
< 10 | > 10000 |  | CC(C)Oc1cc2nn([C@H]3CC[C@H](CN4CC[C@@H](c5ccc6c(C7CCC(=O)NC7=O)nn(C)c6c5)[C@H](O)C4)CC3)cc2cc1C(=O)Nc1cccn([C@H]2C[C@H]2F)c1=O (stereo partly drawn) [Example 129, 2-((1S,4S)-4-(((3S,4S)-4-(3-(2,6-dioxopiperidin-3-yl)-1-methyl-1H-indazol-6-yl)-3-hydroxypiperidin-1-yl)methyl)cyclohexyl)-N-(1-((1S,2R)-2-fluorocyclopropyl)-2-oxo-1,2-dihydropyridin-3-yl)-6-isopropoxy-2H-indazole-5-carboxamide]

Source: patent publication US20240343733A1, “COMPOUNDS FOR TARGETING DEGRADATION OF IRAK4 PROTEINS” (BIOGEN MA INC., priority 2021, published 2024)
